Results published in ChEMBL document CHEMBL1154859, “Structure of aldehyde reductase in ternary complex with a 5-arylidene-2,4-thiazolidinedione aldose reductase inhibitor” (Eur J Med Chem, 2010).

Tests used:
[1] = biological target: T1, Aldo-keto reductase family 1 member A1 (Sus scrofa, UniProt P50578); assay: Inhibition of pig ALR1 assessed as decrease in NADPH absorbance by spectrophotometry
T1 sequence (P50578 whole entry): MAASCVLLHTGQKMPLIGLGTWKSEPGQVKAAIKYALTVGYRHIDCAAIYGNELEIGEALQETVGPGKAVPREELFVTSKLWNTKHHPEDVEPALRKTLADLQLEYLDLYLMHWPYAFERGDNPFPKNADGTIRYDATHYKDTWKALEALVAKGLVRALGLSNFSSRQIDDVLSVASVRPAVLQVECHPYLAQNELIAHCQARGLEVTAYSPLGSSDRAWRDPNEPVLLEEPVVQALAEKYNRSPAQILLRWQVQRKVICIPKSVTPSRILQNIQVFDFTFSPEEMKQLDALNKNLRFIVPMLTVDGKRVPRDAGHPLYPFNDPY

[2] = Ratio of IC50 for pig ALR1 to IC50 for calf ALR2

IC50 [1]: 37 µM
Ratio IC50 [2]: 56
SMILES: COc1ccc(/C=C2\SC(=O)N(CC(=O)O)C2=O)cc1O
